# Assays:
# human 5-HT1A receptors = target: T1, human 5-HT1A receptors (Homo sapiens, UniProt P08908); experiment: [3H] 8-OH-DPAT displacement from 5-HT1A receptor (CHO cells); format: binding; conditions: displacement of [3H] 8-OH-DPAT, CHO cells stably transfected with human 5-HT1A; read-out: 5-HT1A Receptor Affinity KI
# T1 construct: expressed in transfected cells; host or cells: CHO cells
# T1 sequence (P08908 1-422): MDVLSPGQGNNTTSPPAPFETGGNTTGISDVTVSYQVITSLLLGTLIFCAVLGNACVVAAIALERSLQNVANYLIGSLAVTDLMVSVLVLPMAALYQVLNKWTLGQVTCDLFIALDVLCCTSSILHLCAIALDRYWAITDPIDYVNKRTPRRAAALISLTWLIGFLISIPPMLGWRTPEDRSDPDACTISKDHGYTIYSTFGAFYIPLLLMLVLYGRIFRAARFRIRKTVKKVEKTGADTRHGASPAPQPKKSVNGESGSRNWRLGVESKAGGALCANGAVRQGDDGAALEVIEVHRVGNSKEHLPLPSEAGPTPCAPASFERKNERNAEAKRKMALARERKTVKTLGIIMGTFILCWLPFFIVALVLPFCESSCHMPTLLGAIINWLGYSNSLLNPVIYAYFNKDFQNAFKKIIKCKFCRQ
# Excerpt: High affinity for the serotonin 5-HT1A receptor was established by testing the claimed compound's ability to displace [^3H] 8-OH-DPAT (dipropylaminotetralin) from the 5-HT1A serotonin receptor following a modification of the procedure of Hall et al., J. Neurochem. 44, 1685 (1985) which utilizes CHO cells stably transfected with human 5-HT1A receptors.
# [1] = target: T2, cloned human 5-HT1A receptors (Homo sapiens, UniProt P08908); experiment: 35S-GTPγS binding assay, antagonist activity versus 8-OH-DPAT; format: biochemical; conditions: reversal of 8-OH-DPAT effect on 35S-GTPγS binding; for IC50: read-out: 5-HT1A Function IC50
# T2 construct: expressed in transfected cells
# T2 sequence (P08908 1-422): T1 sequence (P08908 1-422)
# Procedure: Antagonist activity at 5-HT1A receptors was established by using a ^35S-GTPγS binding assay similar to that used by Lazareno and Birdsall (Br. J. Pharmacol. 109: 1120, 1993), in which the test compound's ability to affect the binding of ^35S-GTPγS to membranes containing cloned human 5-HT1A receptors was determined. Agonists produce an increase in binding whereas antagonists produce no increase but rather reverse the effects of the standard agonist 8-OH-DPAT. The test compound's maximum inhibitory effect is represented as the Imax, while its potency is defined by the IC50.
Compound,Ki (human 5-HT1A receptors),5-HT1A Function Imax (maximum inhibitory effect) [1],IC50 [1],melting point
"Cc1nc2ccc3c(c2o1)OC(CN1C2CCC1CC(O)(c1ccccc1)C2)CO3 (stereo not drawn) [Example 1, 8-{[2-Methyl-7,8-dihydro[1,4]dioxino[2,3-g][1,3]benzoxazol-8-yl]methyl}-3-phenyl-8-azabicyclo[3.2.1]octan-3-ol]",0.54 nM,76%,53 nM,203 to 205 °C
"Cc1nc2ccc3c(c2o1)OC(CN1C2CCC1CC(O)(c1cccc(C(F)(F)F)c1)C2)CO3 (stereo not drawn) [Example 2, 8-{[2-Methyl-7,8-dihydro[1,4]dioxino[2,3-g][1,3]benzoxazol-8-yl]methyl}-3-[3-(trifluoromethyl)phenyl]-8-azabicyclo[3.2.1]octan-3-ol]",0.77 nM,–,–,148 to 150 °C
"Cc1nc2ccc3c(c2o1)OC(CN1C2CCC1CC(O)(c1ccc4ccccc4c1)C2)CO3 (stereo not drawn) [Example 3, 8-{[2-Methyl-7,8-dihydro[1,4]dioxino[2,3-g][1,3]benzoxazol-8-yl]methyl}-3-(2-naphthyl)-8-azabicyclo[3.2.1]octan-3-ol]",3.71 nM,95%,27 nM,–

# Source: patent US7381723B2, “Azabicyclylmethyl derivatives of 7,8-dihydro-1,6,9,-trioxa-3-aza-cyclopenta[a]naphthalene as 5-HT1A antagonists” (Wyeth, priority 2001, dated 2008)
